Measured values published in the supplement of paper PMC10307832.

What was measured:
Experiment in all cases: relative viability (nuclei count vs DMSO), 5 days (fraction); higher = more cells survive
[1] = compound: COc1cc2nccc(Oc3ccc(NC(=O)C4(C(=O)Nc5ccc(F)cc5)CC4)cc3)c2cc1OC [Cabozantinib] + Nc1nc2[nH]cc(CCc3ccc(C(=O)N[C@@H](CCC(=O)O)C(=O)O)cc3)c2c(=O)[nH]1 [Pemetrexed] (partner 0.2 µM)
Summary of the method: (§1)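 Relative viability is defined as nuclei in treated wells over nuclei in vehicle wells. Duplicate plates were run and medians reported. Lung cancer cell lines in 1536-well plates were dosed by pin tool one day after seeding, with one drug or with a fixed anchor-drug dose plus five library-drug doses (not always all listed) in √10 steps, and nuclei were counted after 5 days.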

Cabozantinib + Foretinib = compound: COc1cc2nccc(Oc3ccc(NC(=O)C4(C(=O)Nc5ccc(F)cc5)CC4)cc3)c2cc1OC [Cabozantinib] + COc1cc2c(Oc3ccc(NC(=O)C4(C(=O)Nc5ccc(F)cc5)CC4)cc3F)ccnc2cc1OCCCN1CCOCC1 [Foretinib] (partner 0.25 µM)
Summary of the method: as §1

Kobe2602 + Tozasertib = compound: C1=CC(=CC=C1NC(=S)NNC2=C(C=C(C=C2[N+](=O)[O-])C(F)(F)F)[N+](=O)[O-])F [Kobe2602] + Cc1cc(Nc2cc(N3CCN(C)CC3)nc(Sc3ccc(NC(=O)C4CC4)cc3)n2)n[nH]1 [Tozasertib] (partner 0.1 µM)
Summary of the method: as §1

[2] = compound: COc1cc2nccc(Oc3ccc(NC(=O)C4(C(=O)Nc5ccc(F)cc5)CC4)cc3)c2cc1OC [Cabozantinib] + CC(=O)c1c(C)c2cnc(Nc3ccc(N4CCNCC4)cn3)nc2n(C2CCCC2)c1=O [Palbociclib] (partner 0.5 µM)
Summary of the method: as §1

Cell Line: UMC-11
- relative viability ([1]; first compound 0.02 µM): 0.802
- relative viability ([1]; first compound 0.06325 µM): 0.879
- relative viability ([1]; first compound 0.2 µM): 0.782
- relative viability ([1]; first compound 0.6325 µM): 0.837
- relative viability ([1]; first compound 2 µM): 0.747
- relative viability (Cabozantinib + Foretinib; first compound 0.02 µM): 0.959
- relative viability (Cabozantinib + Foretinib; first compound 0.06325 µM): 1.21
- relative viability (Cabozantinib + Foretinib; first compound 0.2 µM): 1.01
- relative viability (Cabozantinib + Foretinib; first compound 0.6325 µM): 1.03
- relative viability (Cabozantinib + Foretinib; first compound 2 µM): 0.942
- relative viability (Kobe2602 + Tozasertib; first compound 0.2 µM): 0.215
- relative viability (Kobe2602 + Tozasertib; first compound 0.6325 µM): 0.219
- relative viability (Kobe2602 + Tozasertib; first compound 2 µM): 0.189
- relative viability (Kobe2602 + Tozasertib; first compound 6.325 µM): 0.197
- relative viability (Kobe2602 + Tozasertib; first compound 20 µM): 0.211
- relative viability ([2]; first compound 0.02 µM): 0.352
- relative viability ([2]; first compound 0.06325 µM): 0.324
- relative viability ([2]; first compound 0.2 µM): 0.336
- relative viability ([2]; first compound 0.6325 µM): 0.312
- relative viability ([2]; first compound 2 µM): 0.334
